According to article PMC6625372 (Frontiers in Oncology, 2019):

Assays:
CLB-BAR [1] = assay: Apoptosis analysis, cleaved PARP immunoblot; format: cell-based; settings: 100 nM, 24 h
CLB-GE [2] = assay: Cell cycle analysis (DAPI, NucleoCounter NC-3000); settings: 24 h, 75 and 150 nM
CLB-BAR [3] = assay: Cell cycle analysis (DAPI, NucleoCounter NC-3000); settings: 24 h, 75 and 150 nM
CLB-BAR cells = assay: Neuroblastoma xenograft mouse model with tumor immunohistochemistry; format: in vivo, BALB/cAnNRj-Foxn1nu mice; settings: for CD31 (vascularization) in tumors / Ki-67 positivity in tumors, analysis by Ilastik / cleaved caspase positive apoptotic cells in tumors vs vehicle / phospho-histone H3 in tumors vs vehicle / Ki-67 manual analysis, lower median when compared to vehicle (95% CI): day 14; for CD31 (vascularization) in tumors / Ki-67 positivity in tumors, analysis by Ilastik / cleaved caspase positive apoptotic cells in tumors vs vehicle / phospho-histone H3 in tumors vs vehicle: alectinib 20 mg/kg, crizotinib 80 mg/kg once daily; for Ki-67 manual analysis, lower median when compared to vehicle (95% CI): counts normalized against vehicle, 4 independent investigators
Method: Results for repotrectinib will be presented elsewhere. […] Tumor volume was measured by calipers every second day and calculated by the following equation: V = (π/6) × L × W^2 (V, volume; L, longest; W, width).
At the end of the experiment xenograft tumors (n = 5 for each tumor category) were harvested and fixed in 4% paraformaldehyde for 72 h. Following fixation, the tumors were imbedded in paraffin blocks and sectioned in […] slices with a manual microtome. Heat-induced epitope retrieval (HIER), using citrate buffer 0.01 M, pH 6, was performed before staining. HIER was achieved through a sequence where citrate buffer, containing the slides, was brought up to boiling, sub-boiled for 5 min following 10 s of intermediate cooling. The sequence was performed three times with cooling (5 min) in between. Following washing in distillated H2O (3 × 5 min), the slides were immerged in 3% H2O2 for 15 min and then washed in tris-buffered saline-Tween 20 (TBST) for 5 min. A hydrophobic pen was used to set a margin encircling the samples on the slides. […] The slides were incubated for 48 h in a cold room after being covered with antibody diluent. […] Additional washing steps in TBST (3 × 5 min) were carried out. […] The slides were counterstained with Mayer's hematoxylin solution (Sigma-Aldrich SLBK8961V), dehydrated and mounted.
Hamamatsu NanoZoomer-SQ Digital slide scanner (C13140-01) with a x20 (NA 0.75) objective was used to obtain digital images of the slides. Slides were randomly blinded to the investigator. For each of the blinded slides, a representative 1 mm^2 area was selected employing NanoZoomer Digital Pathology viewer. The slide-image was cropped, containing the area of interest, and saved, as a TIF-file at × 20 resolution. The saved TIF-files were cropped, using ImageJ (Fiji) ([44]), into merely encompassing the 1 mm^2 area of interest.
The 6–7 images were then uploaded into Ilastik ([45]), an interactive machine-learning toolkit, and used as a learning foundation for the software (see program code, Supplementary Data Sheet 3). Once the software analyzed the learning images, the whole batches were processed in Ilastik. The output was then transferred to ImageJ where a macro (see program code, Supplementary Data Sheet 2) calculated the area of staining. The pixel size acquired from NanoZoomer Digital Pathology viewer was accounted for in the macro. Ki-67 immunohistochemistry was also analyzed manually. […] Ninety five percent confidence intervals for the difference between median were retrieved with GraphPad.
GraphPad Prism 7.0 was used for statistical analysis. A non-parametric test was performed acquiring P-values by applying a Mann-Whitney test.

[4] = system: SK-N-AS (11q-del, K-RasQ61K); assay: Apoptosis analysis, cleaved PARP immunoblot; format: cell-based; settings: 100 nM, 24 h
CLB-GE [5] = assay: Apoptosis analysis, cleaved PARP immunoblot; format: cell-based; settings: 100 nM, 24 h
SK-N-AS = assay: Cell cycle analysis (DAPI, NucleoCounter NC-3000); settings: SK-N-AS control cell line, 24 h, 75 and 150 nM
CLB-PE = assay: Apoptosis analysis, cleaved PARP immunoblot; format: cell-based; settings: 100 nM, 24 h
Method: (§1) Supplementary Figure 3. Investigation of apoptosis in wild type neuroblastoma cell lines when treated with alectinib. […] Cell lysates were immunoblotted for PARP and ERK (employed as loading control). […] Three independent experiments were performed.

IMR-32 = assay: Apoptosis analysis, cleaved PARP immunoblot; format: cell-based; settings: IMR-32, 100 nM, 24 h
Method: as §1

Row | Structure (SMILES) | cleaved PARP levels (CLB-BAR [1]) | cell cycle progression, G1 accumulation (CLB-GE [2]) | cell cycle progression, G1 accumulation (CLB-BAR [3]) | growth of neuroblastoma xenografts (CLB-BAR cells; 20 mg/kg bodyweight once daily, 14 days, vs vehicle) | body weight and side effects during treatment (CLB-BAR cells; 20 mg/kg once daily, 14 days) | xenograft tumor volume compared with vehicle (CLB-BAR cells; 20 mg/kg once daily, day 6 p = 0.0222, day 8 p < 0.0001, day 14 p = 0.0072) | tumor growth inhibition compared with crizotinib (CLB-BAR cells; alectinib 20 mg/kg vs crizotinib 80 mg/kg once daily, 14 days) | CD31 (vascularization) in tumors (CLB-BAR cells) | Ki-67 positivity in tumors, analysis by Ilastik (CLB-BAR cells) | cleaved caspase positive apoptotic cells in tumors vs vehicle (CLB-BAR cells) | phospho-histone H3 in tumors vs vehicle (CLB-BAR cells) | Ki-67 manual analysis, lower median when compared to vehicle (95% CI) (CLB-BAR cells) | cleaved PARP levels [4] | cleaved PARP levels (CLB-GE [5]) | cell cycle progression, G1 accumulation (SK-N-AS) | cleaved PARP levels (CLB-PE) | cleaved PARP levels (IMR-32)
1 | CCc1cc2c(cc1N1CCC(N3CCOCC3)CC1)C(C)(C)c1[nH]c3cc(C#N)ccc3c1C2=O [alectinib] | significant increase of cleaved PARP levels | increased G1 accumulation | increased G1 accumulation | effectively abrogated growth | No difference in body weight or obvious side effects | significantly reduced | more effective than with crizotinib | significant increase | non-significant decrease | significantly lower | significant decrease | 0.46 (95% CI 0.32–0.52) | no difference was observed | significant increase of cleaved PARP levels | not observed | no difference was observed | no difference was observed
2 | C[C@@H](Oc1cc(-c2cnn(C3CCNCC3)c2)cnc1N)c1c(Cl)ccc(F)c1Cl [crizotinib] |  |  |  |  |  |  |  | significant increase | modest, but significant reduction | non-significant decrease | not observed | 0.49 (95% CI 0.47–0.50) |  |  |  |  | 
